US11919886B2, “4,9-dioxo-4,9-dihydronaphtho[2,3-B]furan-3-carboxamide derivatives and uses thereof for treating proliferative diseases and infectious diseases” (Academia Sinica, priority 2016, dated 2024)
In brackets after ≈: the same amount, converted by molar mass. Where two headings read alike, the source gives them in different places.

Experiments:
Pseudomonas aeruginosa = test: MIC, broth micro dilution method; assay type: cell-based
Klebsiella pneumoniae = test: MIC, broth micro dilution method; assay type: cell-based
H1975 cells [1] = test: Double thymidine block, S phase progression by flow cytometry; assay type: cell-based, human; details: H1975, release from double thymidine block
Procedure: To evaluate the effects of compound Ion a single round of DNA replication in a cell cycle, H1975 cells were synchronized using a double thymidine block followed by release with DMSO or compound 1-containing medium for 2 to 14 hours. Exemplary results are shown in Panel (C) of FIG. 2. H1975 cells were grown to 60-70% confluence. Then, 2 mM thymidine (Sigma) was added to the cells and incubated for 17 hours. The cells were then washed, and fresh serum-containing medium was added. After 10 hours, thymidine was added again, and the cells were incubated for 17 hours; the cells were then washed with PBS, replaced with fresh serum-containing medium, and the data were collected at the indicated time points. Through flow cytometry analysis, the control cells were observed as synchronized in the G0-G1 phase from 0 hours, increased in the S phase from 4 to 6 hours, and finally progressed to the G2 phase after 8 hours. However, many of the compound 1-treated cells remained in the S phase at all time points. (Panel (C) of FIG. 2). A double thymidine block was performed and the data were collected at the indicated time points. Compared to DMSO, compound 1-treated H1975 cells required more time for the S phase (approximately 4 hours).

Staphylococcus aureus = test: MIC, broth micro dilution method; assay type: cell-based
H1975 cells [2] = test: Cell cycle analysis by propidium iodide flow cytometry; details: 72 h

`Cc1oc2c(c1C(=O)NCCCn1ccnc1)C(=O)c1ccccc1C2=O` [Compound 1, N-(3-(1H-Imidazol-1-yl)propyl)-2-methyl-4,9-dioxo-4,9-dihydronaphtho [2,3-b]furan-3-carboxamide] showed an MIC (Pseudomonas aeruginosa; read-out: MIC (μg/ml) 100%, strain ATCC27853, gram negative) greater than 32 µg/mL, an MIC (Pseudomonas aeruginosa; strain ATCC27853, gram negative, read-out: MIC (μg/ml) 50%) greater than 32 µg/mL and an MIC (Klebsiella pneumoniae; read-out: MIC (μg/ml) 100%, strain ATCC700603, gram negative) greater than 32 µg/mL. For the same compound, the MIC (Klebsiella pneumoniae; strain ATCC700603, gram negative, read-out: MIC (μg/ml) 50%) was greater than 32 µg/mL, the “more time required for the S phase compared to DMSO” value (H1975 cells [1]) was “approximately 4 hours” and the MIC (Staphylococcus aureus; ATCC 2921 / MSSA, read-out: MIC (μg/ml) 100%, strain ATCC2921 3, MSSA) was 4 µg/mL (≈ 11 µM). The MIC (Staphylococcus aureus; ATCC 2921 / MSSA, strain ATCC2921 3, MSSA, read-out: MIC (μg/ml) 50%) was 1 µg/mL (≈ 2.75 µM), the MIC (Staphylococcus aureus; ATCC 12598 / MSSA, read-out: MIC (μg/ml) 100%, strain ATCC12598, MSSA) was 4 µg/mL (≈ 11 µM) and the MIC (Staphylococcus aureus; ATCC 12598 / MSSA, strain ATCC12598, MSSA, read-out: MIC (μg/ml) 50%) was 0.5 µg/mL (≈ 1.38 µM). For the same compound, the MIC (Staphylococcus aureus; ATCC 25923 / MSSA, read-out: MIC (μg/ml) 100%, strain ATCC25923, MSSA) was 4 µg/mL (≈ 11 µM), the MIC (Staphylococcus aureus; ATCC 25923 / MSSA, strain ATCC25923, MSSA, read-out: MIC (μg/ml) 50%) was 2 µg/mL (≈ 5.5 µM) and the MIC (Staphylococcus aureus; ATCC 33592 / MRSA, read-out: MIC (μg/ml) 100%, strain ATCC33592, MRSA (SCCmec III)) was 1 µg/mL (≈ 2.75 µM). For the same compound, the MIC (Staphylococcus aureus; ATCC 33592 / MRSA, strain ATCC33592, MRSA (SCCmec III), read-out: MIC (μg/ml) 50%) was 0.5 µg/mL (≈ 1.38 µM), the MIC (Staphylococcus aureus; ATCC 49476 / MRSA, read-out: MIC (μg/ml) 100%, strain ATCC49476, MRSA (SCCmec III)) was 1 µg/mL (≈ 2.75 µM) and the MIC (Staphylococcus aureus; ATCC 49476 / MRSA, strain ATCC49476, MRSA (SCCmec III), read-out: MIC (μg/ml) 50%) was 0.5 µg/mL (≈ 1.38 µM). For the same compound, the MIC (Staphylococcus aureus; MRSA, range over MRSA strains, broth micro dilution, read-out: MIC) was 1 to 4 µg/mL (≈ 2.75 to 11 µM), the MIC (Staphylococcus aureus; MRSA, read-out: MIC (μg/ml) 100%, strain NTUH-1-2868, MRSA (SCCmec III, ST239, FA-R), clinical isolate) was 1 µg/mL (≈ 2.75 µM) and the MIC (Staphylococcus aureus; MRSA, read-out: MIC (μg/ml) 100%, strain NTUH-104-2, MRSA (SCCmec VT, ST45), clinical isolate) was 1 µg/mL (≈ 2.75 µM). It also gave an MIC (Staphylococcus aureus; MRSA, read-out: MIC (μg/ml) 100%, strain NTUH-406-2, MRSA (SCCmec IV, spa type t008), clinical isolate) of 4 µg/mL (≈ 11 µM), an MIC (Staphylococcus aureus; MRSA, read-out: MIC (μg/ml) 100%, strain NTUH-560, MRSA (SCCmec II, GM-S), clinical isolate) of 4 µg/mL (≈ 11 µM) and an MIC (Staphylococcus aureus; MRSA, read-out: MIC (μg/ml) 100%, strain NTUH-2102, MRSA (SCCmec II, ST5, FA-S), clinical isolate) of 4 µg/mL (≈ 11 µM). It also gave an MIC (Staphylococcus aureus; MRSA, read-out: MIC (μg/ml) 100%, strain NTUH-2417, MRSA (SCCmec III, SXT-S), clinical isolate) of 1 µg/mL (≈ 2.75 µM), an MIC (Staphylococcus aureus; MRSA, read-out: MIC (μg/ml) 100%, strain NTUH-2643, MRSA (SCCmec IV, spa type to 15), clinical isolate) of 4 µg/mL (≈ 11 µM) and an MIC (Staphylococcus aureus; MRSA, read-out: MIC (μg/ml) 100%, strain NTUH-2967, MRSA (SCCmec VT, ST1), clinical isolate) of 4 µg/mL (≈ 11 µM). For the same compound, the MIC (Staphylococcus aureus; MRSA, read-out: MIC (μg/ml) 100%, strain NTUH-4400, MRSA (SCCmec II, ST5, FA-R), clinical isolate) was 2 µg/mL (≈ 5.5 µM), the MIC (Staphylococcus aureus; MRSA, read-out: MIC (μg/ml) 100%, strain NTUH-4578, MRSA (SCCmec IV, ST59), clinical isolate) was 4 µg/mL (≈ 11 µM) and the MIC (Staphylococcus aureus; MRSA, read-out: MIC (μg/ml) 100%, strain NTUH-8038, MRSA (SCCmec IV, spa type t189), clinical isolate) was 4 µg/mL (≈ 11 µM). It also gave an MIC (Staphylococcus aureus; MRSA, read-out: MIC (μg/ml) 100%, strain NTUH-9383, MRSA (SCCmec III, ST239, FA-R), clinical isolate) of 1 µg/mL (≈ 2.75 µM), an MIC (Staphylococcus aureus; MRSA, read-out: MIC (μg/ml) 100%, strain PM1, MRSA (SCCmec VT, ST59), clinical isolate) of 4 µg/mL (≈ 11 µM) and an MIC (Staphylococcus aureus; MRSA, read-out: MIC (μg/ml) 100%, strain TSHR17, MRSA (SCCmec VT)) of 4 µg/mL (≈ 11 µM). For the same compound, the MIC (Staphylococcus aureus; MRSA, strain NTUH-1-2868, MRSA (SCCmec III, ST239, FA-R), clinical isolate, read-out: MIC (μg/ml) 50%) was 0.5 µg/mL (≈ 1.38 µM), the MIC (Staphylococcus aureus; MRSA, strain NTUH-104-2, MRSA (SCCmec VT, ST45), clinical isolate, read-out: MIC (μg/ml) 50%) was 0.5 µg/mL (≈ 1.38 µM) and the MIC (Staphylococcus aureus; MRSA, strain NTUH-406-2, MRSA (SCCmec IV, spa type t008), clinical isolate, read-out: MIC (μg/ml) 50%) was 0.5 µg/mL (≈ 1.38 µM). It also gave an MIC (Staphylococcus aureus; MRSA, strain NTUH-560, MRSA (SCCmec II, GM-S), clinical isolate, read-out: MIC (μg/ml) 50%) of 1 µg/mL (≈ 2.75 µM), an MIC (Staphylococcus aureus; MRSA, strain NTUH-2102, MRSA (SCCmec II, ST5, FA-S), clinical isolate, read-out: MIC (μg/ml) 50%) of 1 µg/mL (≈ 2.75 µM) and an MIC (Staphylococcus aureus; MRSA, strain NTUH-2417, MRSA (SCCmec III, SXT-S), clinical isolate, read-out: MIC (μg/ml) 50%) of 0.5 µg/mL (≈ 1.38 µM). It also gave an MIC (Staphylococcus aureus; MRSA, strain NTUH-2643, MRSA (SCCmec IV, spa type to 15), clinical isolate, read-out: MIC (μg/ml) 50%) of 1 µg/mL (≈ 2.75 µM), an MIC (Staphylococcus aureus; MRSA, strain NTUH-2967, MRSA (SCCmec VT, ST1), clinical isolate, read-out: MIC (μg/ml) 50%) of 1 µg/mL (≈ 2.75 µM) and an MIC (Staphylococcus aureus; MRSA, strain NTUH-4400, MRSA (SCCmec II, ST5, FA-R), clinical isolate, read-out: MIC (μg/ml) 50%) of 1 µg/mL (≈ 2.75 µM). The MIC (Staphylococcus aureus; MRSA, strain NTUH-4578, MRSA (SCCmec IV, ST59), clinical isolate, read-out: MIC (μg/ml) 50%) was 1 µg/mL (≈ 2.75 µM), the MIC (Staphylococcus aureus; MRSA, strain NTUH-8038, MRSA (SCCmec IV, spa type t189), clinical isolate, read-out: MIC (μg/ml) 50%) was 1 µg/mL (≈ 2.75 µM) and the MIC (Staphylococcus aureus; MRSA, strain NTUH-9383, MRSA (SCCmec III, ST239, FA-R), clinical isolate, read-out: MIC (μg/ml) 50%) was 0.5 µg/mL (≈ 1.38 µM). For the same compound, the MIC (Staphylococcus aureus; MRSA, strain PM1, MRSA (SCCmec VT, ST59), clinical isolate, read-out: MIC (μg/ml) 50%) was 1 µg/mL (≈ 2.75 µM), the MIC (Staphylococcus aureus; MRSA, strain TSHR17, MRSA (SCCmec VT), read-out: MIC (μg/ml) 50%) was 0.5 µg/mL (≈ 1.38 µM) and the “Phase(%) G1” value (H1975 cells [2]; H1975, 35 nM) was 70%. For the same compound, the “Phase(%) G2/M” value (H1975 cells [2]; H1975, 35 nM) was 23%, the “Phase(%) S” value (H1975 cells [2]; H1975, 35 nM) was 4% and the “Phase(%) subG1” value (H1975 cells [2]; H1975, 35 nM) was 1%. The “Phase(%) G1” value (H1975 cells [2]; H1975, 70 nM) was 58%, the “Phase(%) G2/M” value (H1975 cells [2]; H1975, 70 nM) was 31% and the “Phase(%) S” value (H1975 cells [2]; H1975, 70 nM) was 7%. The “Phase(%) subG1” value (H1975 cells [2]; H1975, 70 nM) was 1%, the “Phase(%) G1” value (H1975 cells [2]; H1975, 140 nM) was 39% and the “Phase(%) G2/M” value (H1975 cells [2]; H1975, 140 nM) was 38%. The “Phase(%) S” value (H1975 cells [2]; H1975, 140 nM) was 18% and the “Phase(%) subG1” value (H1975 cells [2]; H1975, 140 nM) was 4%.
